Source: patent US20260327264A1, “PEPTIDE INHIBITORS OF INTERLEUKIN-23 RECEPTOR” (Zealand Pharma A/S, priority 2023, published 2026)
*1 amine or outer side, *2 acyl side, *3 side chain or, on linkers, in order; H or OH if unused. Where a SMILES comes first, the peptide text is derived from it. Bridges are numbered along the chain shown (N, C = ends). [ ]: non-standard residue; d: D form. The star is where a group is joined. 2Nal = N[C@@H](Cc1ccc2ccccc2c1)C(=O)O; AEF = NCCOc1ccc(C[C@H](N)C(=O)O)cc1; X1 = O=C(Cc1ccc(CN[*:1])cc1)[*:2]; 3Pal = N[C@@H](Cc1cccnc1)C(=O)O; αMeL = CC(C)C[C@](C)(N)C(=O)O; CH2COCH2 = O=C(C[*:1])C[*:2]; 3Amb = NCc1cccc(C(=O)O)c1; Pyrrolidide = C1CCN(*)C1; Dab = NCC[C@H](N)C(=O)O

Legend:
[1] = molecular target: T1, human IL-23R (Homo sapiens, UniProt Q5VWK5); experiment: Binding assay: displacement of fluorophore (TAMRA)-labelled reference compound from human IL-23R (BRET, Nluc-IL23R fusion protein membranes); conditions: for Emax: read-out: % displacement (hIL-23R binding)
T1 construct: Nanoluc luciferase (Nluc); secretion signal encoded by the plasmid (not specified); expressed in transfected cells; crude membranes used in the assay
T1 sequence (Q5VWK5 22-629): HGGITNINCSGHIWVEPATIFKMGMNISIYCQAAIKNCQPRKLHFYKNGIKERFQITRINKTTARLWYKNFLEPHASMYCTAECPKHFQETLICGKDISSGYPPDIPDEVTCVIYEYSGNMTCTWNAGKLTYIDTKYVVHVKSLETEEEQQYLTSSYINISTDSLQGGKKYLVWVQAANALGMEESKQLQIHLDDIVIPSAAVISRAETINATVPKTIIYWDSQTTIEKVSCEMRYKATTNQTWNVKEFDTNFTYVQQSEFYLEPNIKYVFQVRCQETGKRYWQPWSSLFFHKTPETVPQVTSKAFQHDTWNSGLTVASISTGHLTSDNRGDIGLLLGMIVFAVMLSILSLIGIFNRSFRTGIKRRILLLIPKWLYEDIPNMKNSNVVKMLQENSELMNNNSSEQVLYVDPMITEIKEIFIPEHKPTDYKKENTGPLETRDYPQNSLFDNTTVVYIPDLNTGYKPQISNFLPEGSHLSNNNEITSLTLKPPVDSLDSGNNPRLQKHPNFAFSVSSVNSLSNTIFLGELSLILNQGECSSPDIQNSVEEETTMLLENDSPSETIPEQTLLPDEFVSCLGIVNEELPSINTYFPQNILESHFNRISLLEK
Source text: The assay principle relies on Bioluminescence Resonance Energy Transfer (BRET) between a fluorophore-labelled reference compound binding to the IL-23R part of a fusion protein consisting of the IL-23R fused to a Nanoluc luciferase enzyme (Nanoluc). The Nanoluc is placed in the N-terminus in close proximity to the binding domain of the ligand. Upon close proximity between the fluorophore of the fluorophore-labelled compound and the Nanoluc of the fusion protein, bioluminescence energy generated from conversion of a Nanoluc substrate, is transferred to the fluorophore resulting in an increase in BRET. In presence of an unlabelled compound, the unlabelled compound displaces the fluorophore-labelled peptide from its binding site resulting in a decrease in BRET. The concentration for which half of the fluorophore-labelled peptide is displaced by the unlabelled compound depends on the affinity of the compound for the IL-23R, and is termed the IC50 concentration.
The plasmid also contained a gene to confer resistance for the antibiotic hygromycin. A cell line stably expressing the Nluc-IL23R fusion protein was generated by transfection of HEK293 cells with the expression plasmid and selected with hygromycin for 3 weeks in Growth medium consisting of DMEM w/Glutamax-I containing, 10% V/V FBS, 1% V/V P/S, 1 mM Sodium Pyruvate, and 1× NEAA, and 0.3 mg/mL hygromycin. The remaining cells were propagated and considered a stable expressing Nluc-IL23R fusion protein pool clone.
Cells expressing the Nluc-IL23R fusion protein were expanded in Growth medium and membranes prepared by homogenization of a cell pellet from 18 T175 flasks (4° C. in subsequent steps). The cell pellet was lysed Tris 10 mM, 7.5, 1 mM EDTA and protease inhibitors (Complete, Roche) and homogenized using a 15 mL glass-dounce by 50 strokes. The homogenate was spun at spin @1500 rpm for 10 min, the supernatant transferred to SV-34 tubes and spun at 40000 g for 20 min at 4° C. to pellet the crude membranes. The supernatant was then removed, the pellet resuspended in 5 mL buffer containing 50 mM HEPES pH 7.4, 5 mM EGTA, and 5 mM MgCl2, and homogenized. Aliquots of the resuspended and homogenized membranes containing the Nluc-IL23R fusion protein were stored at −80° C. until use.
The plate was sealed with light impermeable plate seals, and incubated on an orbital shaker 400 rpm for 2 hours at room temperature. To determine the BRET ratio, the plate seal was removed and 25 μL of the Nanoluc substrate (Promega N1572) diluted 1:500 was added to each well and incubated for 1-2 minutes on an orbital shaker at 400 rpm. […] The BRET ratio was calculated as the fluorescence from the TAMRA/nanoluc bioluminescence.
Compound potency (IC50) and maximal displacement (% displacement) were estimated by computer-aided curve fitting using a 4-parameter logistic (4PL) non-linear model. The IC50 and maximal for each compound was determined by computer-aided curve fitting using a 4-parameter logistic (4PL) non-linear model.

[2] = tested on: IL-23 mediated STAT3 signalling (DB cells); experiment: Functional inhibition of IL-23 mediated STAT3 signalling (phospho-STAT3 Tyr705) in DB cells; assay type: cell-based, human; conditions: for IC50: Table 3-2, EC80 of hIL-23, read-out: hIL-23 (pSTAT3) antagonist IC50; for hIL-23 (pSTAT3) antagonist % inhibition: Table 3-2, maximal inhibitory response, EC80 of hIL-23
Source text: Upon binding of IL-23, the IL-23R forms a heterodimer signalling complex together with IL-12R β1, which through the JAK2/STAT3 pathway promotes phosphorylation of STAT3 to form phospho-STAT3.
For compounds tested in this assay, the response was normalized relative to control values to calculate the IC50 and maximal inhibitory response from a concentration response curve of the compound in presence of a fixed concentration of human IL-23.
The assay procedure was as follows. […] Following preincubation of the DB cells with inhibitor for 15 min in a cell incubator (37° C., 5% CO2), 20 μL of the prepared 3× the EC80 of hIL-23 solution was added to each well and incubated for 90 min in a cell incubator (37° C., 5% CO2). For some wells buffer only or IL-23 only corresponding to the EC80 was added to obtain readouts needed for normalization. To terminate the assay, the plate was spun at 1000 G for 5 min to pellet cells, the supernatant removed using an 8-channel manual pipette, and then added 50 μL/well Complete Lysis Buffer from the MSD STAT3 kit (Cat #K150SVD, Mesoscale) to the cell pellet. To completely lyse cells to release phospho-STAT3 for detection, the plate was shaken for 10 min at room temperature (500 rpm) sealed with aluminium foil and placed at −80° C. for a minimum of 15 min. Detection of the phospho-STAT3 level in the cell lysate from the individual wells was determined using the MSD STAT3 kit (Cat #K150SVD, Mesoscale) and read on a Meso QuickPlex SQ 120 plate reader (Mesoscale).
For data analysis raw data counts from the Meso QuickPlex SQ 120 plate reader were normalized relative to the response by the EC80 of hIL-23 alone (no compound added) and the buffer level.

Emax [1] [%]	IC50 [2] [nM]	IC50 [1] [nM]	Structure (SMILES)	hIL-23 (pSTAT3) antagonist % inhibition [2] [%]
100	850		CC(C)C[C@@H]1NC(=O)[C@H](Cc2c[nH]c3ccccc23)NC(=O)[C@H](Cc2c[nH]c3ccccc23)NC(=O)[C@@H]2CSCC(=O)CSC[C@H](NC(=O)[C@H](CO)NC(=O)[C@@H](NC(=O)[C@@H](N)CC(=O)O)CCC(=O)NCCCC[C@@H](C(=O)N[C@@H](CCCNC(=N)N)C(N)=O)NC1=O)C(=O)N[C@@H](Cc1c[nH]c3ccccc13)C(=O)N[C@@H](CCC(N)=O)C(=O)N2 [Ref 4, H-DE(1c)SC(2a)WQC(2a)WWLK(1c)R-[NH2], reference compound] (HELM PEPTIDE1{D.E.S.C.W.Q.C.W.W.L.K.R.[am]}|CHEM1{[O=C(C[*:1])C[*:2]]}$PEPTIDE1,PEPTIDE1,2:R3-11:R3|PEPTIDE1,CHEM1,4:R3-1:R1|PEPTIDE1,CHEM1,7:R3-1:R2$$$V2.0)	87
103	18		CC(=O)N[C@H]1CCCCNC(=O)CC[C@@H](C(=O)N[C@@H](CCCNC(=N)N)C(N)=O)NC(=O)[C@H](CC(C)C)NC(=O)[C@H](Cc2ccc3ccccc3c2)NC(=O)[C@H](Cc2c[nH]c3ccccc23)NC(=O)[C@@H]2CSCC(=O)CSC[C@H](NC(=O)[C@H](CO)NC1=O)C(=O)N[C@@H](Cc1c[nH]c3ccccc13)C(=O)N[C@@H](CCC(N)=O)C(=O)N2 [Ref 18, [Ac]-K(1c)SC(2a)WQC(2a)W[2-Nal]LE(1c)R-[NH2], reference compound] (HELM PEPTIDE1{[ac].K.S.C.W.Q.C.W.[O=C([C@H](Cc1ccc2ccccc2c1)N[*:1])[*:2]].L.E.R.[am]}|CHEM1{[O=C(C[*:1])C[*:2]]}$PEPTIDE1,PEPTIDE1,2:R3-11:R3|PEPTIDE1,CHEM1,4:R3-1:R1|PEPTIDE1,CHEM1,7:R3-1:R2$$$V2.0)	97
103	45		CC(C)C[C@@H]1NC(=O)[C@H](Cc2ccc3ccccc3c2)NC(=O)[C@H](Cc2c[nH]c3ccccc23)NC(=O)[C@@H]2CSCC(=O)CSC[C@H](NC(=O)[C@H](CO)NC(=O)c3cccc(c3)CNC(=O)CC[C@@H](C(=O)N[C@@H](CCCNC(=N)N)C(N)=O)NC1=O)C(=O)N[C@@H](Cc1c[nH]c3ccccc13)C(=O)N[C@@H](CCC(N)=O)C(=O)N2 [Ref 37, [(3-Aminomethyl)benzoyl](1c)*SC(2a)WQC(2a)W[2-Nal]LE(1c)R-[NH2], reference compound] ([3Amb]SCWQCW[2Nal]LER-NH2; linker 3-6 via CH2COCH2; lactam N-10)	89
110	29		CC(C)C[C@]1(C)NC(=O)[C@H](Cc2ccc3ccccc3c2)NC(=O)[C@H](Cc2ccc(OCCN)cc2)NC(=O)[C@@H]2CSCC(=O)CSC[C@H](NC(=O)[C@H](CO)NC(=O)c3cccc(c3)CNC(=O)CC[C@@H](C(=O)N[C@H](CCCNC(=N)N)C(N)=O)NC1=O)C(=O)N[C@@H](Cc1c[nH]c3ccccc13)C(=O)N[C@@H](CCC(N)=O)C(=O)N2 [Ref 41, [(3-Aminomethyl)benzoyl](1c)*SC(2a)WQC(2a)[Y(2-aminoethoxy)][2-Nal][2-Me-Leu]E(1c)[{d}R]-[NH2], reference compound] ([3Amb]SCWQC[AEF][2Nal][αMeL]E[dR]-NH2; linker 3-6 via CH2COCH2; lactam N-10)	99
100	7.8		CC(C)C[C@]1(C)NC(=O)[C@H](Cc2ccc3ccccc3c2)NC(=O)[C@H](Cc2ccc(OCCN)cc2)NC(=O)[C@@H]2CSCC(=O)CSC[C@H](NC(=O)[C@H](CO)NC(=O)Cc3ccc(cc3)CNC(=O)CC[C@@H](C(=O)N[C@@H](CCCNC(=N)N)C(N)=O)NC1=O)C(=O)N[C@@H](Cc1c[nH]c3ccccc13)C(=O)N[C@@H](CCC(N)=O)C(=O)N2 [Ref 52, [4-Aminomethyl-phenylacetyl](1c)*SC(2a)WQC(2a)[Y(2-aminoethoxy)][2-Nal][2-Me-Leu]E(1c)R-[NH2], reference compound] ([X1]SCWQC[AEF][2Nal][αMeL]ER-NH2; linker 3-6 via CH2COCH2; lactam N-10)	103
101	21		CC(C)C[C@]1(C)NC(=O)[C@H](Cc2ccc3ccccc3c2)NC(=O)[C@H](Cc2ccc(OCCN)cc2)NC(=O)[C@@H]2CSCC(=O)CSC[C@H](NC(=O)[C@H](CO)NC(=O)Cc3ccc(cc3)CNC(=O)CC[C@@H](C(=O)N[C@@H](CO)C(N)=O)NC1=O)C(=O)N[C@@H](Cc1c[nH]c3ccccc13)C(=O)N[C@@H](CCC(N)=O)C(=O)N2 [Ref 81, [4-Aminomethyl-phenylacetyl](1c)*SC(2a)WQC(2a)[Y(2-aminoethoxy)][2-Nal][2-Me-Leu]E(1c)S-[NH2], reference compound]	95
103	11		CC(C)C[C@]1(C)NC(=O)[C@H](Cc2ccc3ccccc3c2)NC(=O)[C@H](Cc2ccc(OCCN)cc2)NC(=O)[C@@H]2CSCC(=O)CSC[C@H](NC(=O)[C@H](CO)NC(=O)Cc3ccc(cc3)CNC(=O)CC[C@@H](C(=O)N[C@@H](CCN)C(N)=O)NC1=O)C(=O)N[C@@H](Cc1c[nH]c3ccccc13)C(=O)N[C@@H](CCC(N)=O)C(=O)N2 [Ref 82, [4-Aminomethyl-phenylacetyl](1c)*SC(2a)WQC(2a)[Y(2-aminoethoxy)][2-Nal][2-Me-Leu]E(1c)[Dab]-[NH2], reference compound] ([X1]SCWQC[AEF][2Nal][αMeL]E[Dab]-NH2; linker 3-6 via CH2COCH2; lactam N-10)	97
94			CC(C)C[C@]1(C)NC(=O)[C@H](Cc2ccc3ccccc3c2)NC(=O)[C@H](Cc2ccc(OCCN)cc2)NC(=O)[C@@H]2CSCC(=O)CSC[C@H](NC(=O)[C@H](CO)NC(=O)Cc3ccc(cc3)CNC(=O)CC[C@@H](C(=O)N[C@@H](CCN)C(=O)N[C@@H](Cc3cccnc3)C(N)=O)NC1=O)C(=O)N[C@@H](Cc1c[nH]c3ccccc13)C(=O)N[C@@H](CCC(N)=O)C(=O)N2 [Ref 120, [4-Aminomethyl-phenylacetyl](1c)*SC(2a)WQC(2a)[Y(2-aminoethoxy)][2-Nal][2-Me-Leu]E(1c)[Dab][3-(3-Pyridyl)-Ala]-[NH2], reference compound] ([X1]SCWQC[AEF][2Nal][αMeL]E[Dab][3Pal]-NH2; linker 3-6 via CH2COCH2; lactam N-10)	101
101	21		CC(C)C[C@]1(C)NC(=O)[C@H](Cc2ccc3ccccc3c2)NC(=O)[C@H](Cc2ccc(OCCN)cc2)NC(=O)[C@@H]2CCNC(=O)CC[C@H](NC(=O)[C@H](CO)NC(=O)Cc3ccc(cc3)CNC(=O)CC[C@@H](C(=O)N[C@@H](CCN)C(N)=O)NC1=O)C(=O)N[C@@H](Cc1c[nH]c3ccccc13)C(=O)N[C@@H](CCC(N)=O)C(=O)N2 [Ref 125, [4-Aminomethyl-phenylacetyl](1c)*SE(2c)WQ[Dab](2c)[Y(2-aminoethoxy)][2-Nal][2-Me-Leu]E(1c)[Dab]-[NH2], reference compound]	98
105	42	1.2	CC(C)C[C@]1(C)NC(=O)[C@H](Cc2ccc3ccccc3c2)NC(=O)[C@H](Cc2ccc(OCCN)cc2)NC(=O)[C@@H]2CCNC(=O)CC[C@H](NC(=O)[C@H](CO)NC(=O)Cc3ccc(cc3)CNC(=O)CC[C@@H](C(=O)N[C@@H](CCN)C(N)=O)NC1=O)C(=O)N[C@@H](Cc1c[nH]c3ccccc13)C(=O)N[C@@H](CCC(=O)N1CCCC1)C(=O)N2 [Ref 146, [4-Aminomethyl-phenylacetyl](1c)*SE(2c)W[Q(pyrrolidin)][Dab](2c)[Y(2-aminoethoxy)][2-Nal][2-Me-Leu]E(1c)[Dab]-[NH2], reference compound] ([X1]SEWE(Pyrrolidide)[Dab][AEF][2Nal][αMeL]E[Dab]-NH2; lactam 3-6, N-10)	98
